These are literature values, as cited in publication PMC13061384, “Rapid behavioral screening in the planarian Dugesia japonica is a biologically relevant system to study neurotoxicity of organophosphorus pesticides mixtures” (Frontiers in Toxicology, 2026).

For this series the following is noted: ref PubChem.

By logP is commonly meant a log measure of how a compound divides between an organic and an aqueous phase. On to `CCOP(=S)(OCC)Oc1ccc([N+](=O)[O-])cc1` [PT, Parathion], for which the logP is 3.8.
